Data from patent US8742088B2, “Nucleic acids encoding antibodies or portions thereof comprising a heterologous T cell epitope and their use in modulating T cell responses” (priority 2007, dated 2014).

System: predicted CTL epitopes from Tie-2
Test: Ex-vivo IFNγ ELISPOT with predicted CTL epitopes from Tie-2
Assay type: in vivo, HHDII mice
Conditions: for Peptide-specific IFNγ response, highest mean value: peptide in IFA
Procedure: (C) and (D) HHDII mice were either untreated (c) or treated with 400 μg PC61mAb i.p., (d). 4 days later, all mice were immunized with the Tie2 C200HFc DNA construct. DNA immunizations were repeated at 7 day intervals for a total of 3 immunisations. 6 days after the final immunisation, splenocytes were harvested and restimulated in an ex-vivo IFNγ ELISPOT assay with 1 μg/ml of each of the predicted CTL epitopes from Tie-2. Bars indicate the mean of triplicate values for each individual mouse, normalized to background controls, with error bars representing the standard deviation from the mean.
(E) and (F), HHDII mice were either untreated (e) (n=3) or treated (f) (n=2) with 400 μg PC61 antibody i.p. After 4 days, all mice were immunised with 100 μg Z12 peptide and 100 μg Z48 peptide, mixed 1:1 in IFA (s.c.). Repeat peptide immunisations were administered 7 days after the first peptide immunisation. Splenocytes were harvested 14 days after the final immunisation and restimulated with 1 μg/ml Z12 peptide (black bars) or media alone (open bars) in an IFNγ ELIspot assay. Bars indicate the mean of triplicate values with error bars representing the standard deviation from the mean.
(G) HHDII mice were immunised with 100 μg Z12 peptide mixed 1:1 in IFA (s.c.). […] Splenocytes were harvested 7 days after the final immunisation and analysed for the presence of epitope specific responses to increasing peptide concentration in IFNγ elispot assay. Responses are measured from individual mice as spots/million splenocytes and avidity is assigned as the concentration which gives 50% maximal effector function.
(H) HHDII mice were immunised with ImmunoBody DNA construc DCIB71 via gene gun at days 0, 7 and 14. Splenocytes were harvested 7 days after the final immunisation and analysed for the presence of epitope specific responses to increasing peptide concentration in IFNγ elispot assay. Responses are measured from individual mice as spots/million splenocytes and avidity is assigned as the concentration which gives 50% maximal effector function. […]

## ILINSLPLV [Z282, I L I N S L P L V]
CD25 depleted animals, mouse 2
  Peptide-specific IFNγ response, highest mean value: 137 SFC/million cells
non-depleted animals, mouse 3
  Peptide-specific IFNγ response, highest mean value: 215 SFC/million cells
Three weekly immunisations, peptide titration
  z12 epitope specific responses (frequency and avidity): low frequency and avidity epitope specific responses
